Laboratory results from patent publication US20240216440A1, “STRING-LIKE AGGREGATES OF RETINAL PIGMENT EPITHELIAL CELLS, DEVICE AND PRODUCTION METHOD FOR PRODUCING SAME, AND THERAPEUTIC AGENT COMPRISING SAID STRING-LIKE AGGREGATES” (RIKEN, priority 2021, published 2024).
Entries after “also recorded” stand apart in the source; their conditions may differ.

What was measured:
Type in all cases: cell-based, human
[1] = system: hiPSC-RPE cells (201B7modFucci line); experiment: Adhesion/expansion assay of plated string-like aggregates, 201B7modFucci line
Procedure: The string-like aggregates were released from the grooves of the device, and the string-like aggregates were seeded onto an uncoated 24-well plate (Corning Incorporated) containing the mix medium. After adhesion of the string-like aggregates (2 to 3 days later), the medium was replaced with RPE maintenance medium (containing bFGF and SB431542). The dishes under culture were photographed using the IncuCyte Zoom system (Essen BioScience). From the obtained image data, expanded cells were manually marked using Fiji, and the expanded area was measured. The present inventors tested whether another hiPSC line could similarly form string-like aggregates. The present inventors used the 201B7modFucci line to induce RPE differentiation and compared it with hiPSC(M8)-RPE. hiPSC(201B7modFucci)-RPE also formed string-like aggregates like hiPSC(M8)-RPE, but the 201B7modFucci line required a Y-27632 concentration of 5 μM or higher to stably form string-like aggregates (FIG. 15-1A). The optimal Y-27632 concentration for adhesion/expansion assays was 5 μM for hiPSC(201B7modFucci)-string-like aggregates, and the optimal Y-27632 concentration for the desired adhesion/expansion effect varied depending on the cell line used and required optimization (FIGS. 14D and E). […]

[2] = system: hiPSC-RPE cells (M8 line); experiment: Adhesion and expansion of plated string-like aggregates on uncoated 24-well plate, M8 line; details: for adhesion to plate and expansion of string-like aggregates: uncoated wells
Procedure: The string-like aggregates were released from the grooves of the device, and the string-like aggregates were seeded onto an uncoated 24-well plate (Corning Incorporated) containing the mix medium. After adhesion of the string-like aggregates (2 to 3 days later), the medium was replaced with RPE maintenance medium (containing bFGF and SB431542). The dishes under culture were photographed using the IncuCyte Zoom system (Essen BioScience). From the obtained image data, expanded cells were manually marked using Fiji, and the expanded area was measured. In the present inventors' preliminary experiment (FIG. 14A), higher concentrations of Y-27632 appeared to affect the texture of the string-like aggregates to become tighter. […] The string-like aggregates on day 2 (FIGS. 13D and E) and day 3 (FIGS. 13F and G) were then used to compare cell expansion after plating in uncoated wells between string-like aggregates formed with 2.5 and 10 μM Y-27632.

[3] = system: hiPSC-RPEs (M8 line); experiment: String-like aggregate formation under different Y-27632 concentrations, M8 line; details: for appearance of string-like aggregates: day 2
Procedure: After thawing, hiPSC-RPE cells were cultured for 2 weeks, the cells were collected, and seeded in the number described in each experiment into each groove of the PDMS-based culture device, using 15 μl RPE maintenance medium containing the optimal concentration of Y-27632 (concentrations indicated for each experiment). In the present inventors' preliminary experiment (FIG. 14A), higher concentrations of Y-27632 appeared to affect the texture of the string-like aggregates to become tighter. […] Next, the present inventors directly compared string-like aggregates made with either 2.5 μM or 10 μM of Y-27632 (FIGS. 13B-G). […] On the other hand, string-like aggregates formed with 10 μM Y-27632 appeared more dense (FIG. 13B).

Question: What does the source list for C[C@@H](N)[C@H]1CC[C@H](C(=O)Nc2ccncc2)CC1 [Y-27632]?
Answer: adhesiveness of string-like aggregates to the plate ([1]; aggregates added with 2-2.5 μM Y-27632, 201B7modFucci line, day 2 aggregates, 24-well plate): consistently adherent to the plate; optimal Y-27632 concentration for adhesion/expansion assays ([1]; hiPSC(201B7modFucci)-string-like aggregates): 5 µM; adhesiveness of string-like aggregates to the plate ([2]; aggregates added with 2-2.5 μM Y-27632, M8 line, day 2 aggregates, 24-well plate): highest adhesiveness to the plate; adhesion to plate and expansion of string-like aggregates ([2]; aggregates formed with 2.5 μM Y-27632, compared with 10 μM, day 2 and day 3 aggregates): tended to attach to the plate and begin to expand early after placing; also recorded: higher adhesiveness to the plate, covered more area, and began to expand faster on the plate; adhesion to plate and expansion of string-like aggregates ([2]; aggregates formed with 10 μM Y-27632): expansion was delayed; also recorded: tended to be coil-like and moved around for several days before settling and starting to expand; string-like aggregate formation ([3]; M8 line, 0 and 1 μM Y-27632): not successfully formed; Y-27632 concentration at which hiPSC-RPEs were able to form string-like aggregate shape ([3]; M8 line, tested 0, 1, 2, 2.5 and 10 μM): above 2 μM; appearance of string-like aggregates ([3]; formed with 2.5 μM Y-27632): flat and loose; appearance of string-like aggregates ([3]; formed with 10 μM Y-27632): more dense
